Experimental findings from ChEMBL document CHEMBL3588775, “Synthesis and pharmacological evaluation of N-benzyl substituted 4-bromo-2,5-dimethoxyphenethylamines as 5-HT2A/2C partial agonists” (Bioorg Med Chem, 2015) are described below.

In general, Ki refers to the dissociation constant of the complex between target and ligand, obtained from inhibition or displacement. A low value points to tighter binding. One may read the EC50 as the midpoint of the concentration-response curve. Usually Emax stands for the greatest response seen or fitted, relative to the assay's reference.

For test [1], the target named is T1, 5-hydroxytryptamine receptor 2A (Homo sapiens, UniProt P28223). Nature of the test: Binding affinity to 5-HT2A receptor (unknown origin) by PDSP assay.
Test [2] addresses T2, 5-hydroxytryptamine receptor 2C (Homo sapiens, UniProt P28335).
T2 sequence (P28335 whole entry): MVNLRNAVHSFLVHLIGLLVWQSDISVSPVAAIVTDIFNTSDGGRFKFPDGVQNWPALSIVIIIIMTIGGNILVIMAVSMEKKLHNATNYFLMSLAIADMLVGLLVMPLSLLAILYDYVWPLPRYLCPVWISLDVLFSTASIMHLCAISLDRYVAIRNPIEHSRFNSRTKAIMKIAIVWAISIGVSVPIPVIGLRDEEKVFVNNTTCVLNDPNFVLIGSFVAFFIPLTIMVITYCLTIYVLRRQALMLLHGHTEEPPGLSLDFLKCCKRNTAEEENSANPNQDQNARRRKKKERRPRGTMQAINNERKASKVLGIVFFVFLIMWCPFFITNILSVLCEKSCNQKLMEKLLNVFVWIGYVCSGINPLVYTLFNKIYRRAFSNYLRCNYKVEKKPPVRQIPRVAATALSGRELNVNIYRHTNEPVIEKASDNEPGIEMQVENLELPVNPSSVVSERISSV
The experiment in a line: Binding affinity to 5-HT2C receptor (unknown origin) by PDSP assay.

In test [3] the target is T3, Serotonin 2 receptors; 5-HT2a & 5-HT2c (Homo sapiens) (UniProt P28223+P28335). Nature of the test: Selectivity for 5-HT2A receptor (unknown origin) over 5-HT2C receptor (unknown origin) by PDSP assay.
Test [4] concerns the target T2, 5-hydroxytryptamine receptor 2C. Nature of the test: Partial agonist activity at human 5-HT2C receptor expressed in HEK293 cells preincubated for 1 hr at 37 degC followed by incubated for 15 mins at room temperature by IP-One assay. It counts as cell-based.
Test [5] concerns the target T3, Serotonin 2 receptors; 5-HT2a & 5-HT2c (Homo sapiens). The experiment in a line: Selectivity for human 5-HT2A receptor over human 5-HT2C receptor by IP-One assay.
The target of test [6] is T1, 5-hydroxytryptamine receptor 2A. The experiment in a line: Partial agonist activity at human 5-HT2A receptor expressed in HEK293 cells preincubated for 1 hr at 37 degC followed by incubated for 15 mins at room temperature by IP-One assay relative to 5-HT. It counts as cell-based.
Test [7] deals with T4, 5-hydroxytryptamine receptor 2C (Homo sapiens) (UniProt P28335).
T4 sequence (whole entry): T2 sequence (P28335 whole entry)
Nature of the test: Partial agonist activity at human 5-HT2C receptor expressed in HEK293 cells preincubated for 1 hr at 37 degC followed by incubated for 15 mins at room temperature by IP-One assay relative to 5-HT. Format: cell-based.

Test [8] deals with T1, 5-hydroxytryptamine receptor 2A.
A short description of test [9]: Selectivity for human 5-HT2A receptor over rat 5-HT2C receptor by PDSP assay.
The target in test [10] is T1, 5-hydroxytryptamine receptor 2A. Nature of the test: Partial agonist activity at human 5-HT2A receptor expressed in human tsA201 cells after 30 mins by inositol phosphate turnover assay. Format: functional, cell-based.
The target in test [11] is T2, 5-hydroxytryptamine receptor 2C. The experiment in a line: Partial agonist activity at human 5-HT2C receptor expressed in human tsA201 cells after 30 mins by inositol phosphate turnover assay. It counts as functional, cell-based.
Test [12] has as its target T3, Serotonin 2 receptors; 5-HT2a & 5-HT2c (Homo sapiens). The experiment in a line: Selectivity for human 5-HT2A receptor over human 5-HT2C receptor by inositol phosphate turnover assay. It counts as functional.
For test [13], the target named is T1, 5-hydroxytryptamine receptor 2A. Nature of the test: Partial agonist activity at human 5-HT2A receptor expressed in human tsA201 cells after 30 mins by inositol phosphate turnover assay relative to 5-HT. Format: functional, cell-based.
For test [14], the target named is T4, 5-hydroxytryptamine receptor 2C (Homo sapiens). Nature of the test: Partial agonist activity at human 5-HT2C receptor expressed in human tsA201 cells after 30 mins by inositol phosphate turnover assay relative to 5-HT. Format: functional, cell-based.
Test [15] has as its target T1, 5-hydroxytryptamine receptor 2A. Nature of the test: Displacement of [3H]-Ketanserin from human 5-HT2A receptor by PDSP assay. (In general: In a radioligand displacement assay an active substance lowers the binding of a labelled ligand.)
Test [16] addresses T5, 5-hydroxytryptamine receptor 2C (Rattus norvegicus, UniProt P08909).
T5 sequence (P08909 whole entry): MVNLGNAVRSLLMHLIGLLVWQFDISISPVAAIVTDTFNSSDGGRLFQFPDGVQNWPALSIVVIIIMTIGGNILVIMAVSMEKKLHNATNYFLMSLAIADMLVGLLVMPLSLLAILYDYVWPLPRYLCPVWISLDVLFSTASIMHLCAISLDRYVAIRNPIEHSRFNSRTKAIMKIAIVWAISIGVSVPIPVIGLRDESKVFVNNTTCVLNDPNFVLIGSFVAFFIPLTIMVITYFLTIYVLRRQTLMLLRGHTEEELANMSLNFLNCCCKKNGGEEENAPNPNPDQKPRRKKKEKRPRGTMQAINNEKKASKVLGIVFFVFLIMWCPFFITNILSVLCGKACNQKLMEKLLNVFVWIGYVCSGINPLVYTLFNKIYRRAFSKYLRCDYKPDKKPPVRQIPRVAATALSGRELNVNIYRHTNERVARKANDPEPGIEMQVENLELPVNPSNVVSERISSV
The experiment in a line: Displacement of [3H]-Mesulergine from rat 5-HT2C receptor by PDSP assay.

T1 sequence (P28223 whole entry): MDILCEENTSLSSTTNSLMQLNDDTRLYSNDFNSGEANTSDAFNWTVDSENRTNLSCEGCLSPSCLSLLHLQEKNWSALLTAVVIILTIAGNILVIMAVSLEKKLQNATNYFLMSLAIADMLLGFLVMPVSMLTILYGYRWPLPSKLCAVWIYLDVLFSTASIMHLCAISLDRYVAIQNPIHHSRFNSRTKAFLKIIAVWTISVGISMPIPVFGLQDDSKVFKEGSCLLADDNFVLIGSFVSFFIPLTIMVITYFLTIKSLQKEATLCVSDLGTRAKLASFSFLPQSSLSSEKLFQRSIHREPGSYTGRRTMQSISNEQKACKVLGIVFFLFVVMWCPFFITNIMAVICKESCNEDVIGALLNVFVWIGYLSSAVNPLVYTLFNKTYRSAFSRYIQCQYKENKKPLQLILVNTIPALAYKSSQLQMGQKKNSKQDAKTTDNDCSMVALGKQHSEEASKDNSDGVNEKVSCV
T3 sequence (P28223 whole entry, looked up, one chain of several): as the sequence (P28223 whole entry) above

For the compound `COc1ccc(CNCCc2cc(OC)c(Br)cc2OC)c(OC)c1`, the values for the Ki in test [1] and in test [2] were 20 nM and 26.9 nM, respectively. In addition, the Selectivity ratio in [3] turned out to be 1.3.

As for `COc1cc(CCNCc2cccc3nc[nH]c23)c(OC)cc1Br`, the Ki in test [1] is 7.76 nM; in [2], 9.33 nM. The Selectivity ratio in test [3] is 1.2.

With `COc1cccc(CNCCc2cc(OC)c(Br)cc2OC)c1`, the figures for the Ki in test [1] and in [2] were 0.437 nM and 4.68 nM, respectively. Besides, the Selectivity ratio in [3] was found to be 11.

In the case of `COc1cc(CCNCc2cccnc2OC)c(OC)cc1Br`, the Ki in test [1] was 79.4 nM; in test [2], 70.8 nM. Further, the Selectivity ratio in [3] was 0.9.

On to `COc1cc(CCNCc2cccc(OC)c2F)c(OC)cc1Br`, for which the values for the inhibition constant (Ki) in test [1] and in test [2] were 3.31 nM and 56.2 nM, respectively. Moreover, the Selectivity ratio was found to be 17 in [3] and 2.7 in test [5]. Besides, the concentration for a half-maximal effect (EC50) is 282 nM in test [4] and 105 nM in test [8]. Besides, the Emax in test [6] was found to be 22%; in test [7] it was 16%.

In the case of `COc1cc(CCNCc2cccc3ccoc23)c(OC)cc1Br`, the Ki was 0.603 nM in test [1] and 2.51 nM in test [2]. For the same compound, the Selectivity ratio in [3] turned out to be 4.2.

Turning to `COc1ccc(OC)c(CNCCc2cc(OC)c(Br)cc2OC)c1`, the Ki in test [1] is 30.9 nM; in [2], 77.6 nM. Also, the Selectivity ratio in test [3] was determined as 2.5.

Regarding `COc1cc(CCNCc2cccc(OC)c2OC)c(OC)cc1Br`, the figures for the Ki in test [1] and in test [2] were 3.09 nM and 23.4 nM, respectively. Also, the Selectivity ratio in [3] stood at 7.5.

Take `COc1cc(CCNCc2cccnc2)c(OC)cc1Br`: the Ki is 83.2 nM in test [1] and 120 nM in test [2]. Further, in [3], the Selectivity ratio was found to be 1.4.

As to `COc1cc(CCNCc2cccc3ccsc23)c(OC)cc1Br`, the Ki in test [1] was 1.7 nM; in test [2], 7.76 nM. Also, the Selectivity ratio in [3] came out at 4.5.

Turning to `COc1cc(CCNCc2cccc3cn[nH]c23)c(OC)cc1Br`, the Ki is 12 nM in test [1] and 24 nM in test [2]. In addition, the Selectivity ratio in test [3] was 2.

Consider `COc1cc(CCNCc2cccc3c2OCC3)c(OC)cc1Br`, for which the Ki is 0.2 nM in [1] and 3.39 nM in [2]. Besides, the Selectivity ratio was 17 in test [3] and 7.1 in [5]. In addition, the EC50 is 32.4 nM in test [4] and 4.57 nM in test [8]. For the same compound, the Emax in test [6] was found to be 33%; in [7] it was 52%.

As to `COc1cc(CCNCc2ccncc2)c(OC)cc1Br`, the figures for the Ki in [1] and in test [2] were 141 nM and 155 nM, respectively. Also, the Selectivity ratio in test [3] worked out at 1.1.

For `COc1cc(CCNCc2ccccn2)c(OC)cc1Br`, the Ki is 38.9 nM in test [1] and 41.7 nM in test [2]. Besides, the Selectivity ratio in test [3] came to 1.1.

Take `COc1cc(CCNCc2c(OC)cccc2OC)c(OC)cc1Br`: the Ki is 316 nM in test [1] and 17.4 nM in [2]. Further, the Selectivity ratio in test [3] turned out to be 0.06; in test [5], 16. The EC50 is 87100 nM in test [4] and 5370 nM in test [8]. The Emax in test [6] turned out to be 53%; in test [7], 33%.

`COc1cc(CCNCc2ccccc2OC)c(OC)cc1Br`: in test [9], the Selectivity ratio is 100.

As to `COc1cc(CCNCc2cccc3c2OCO3)c(OC)cc1Br`, the EC50 is 10.5 nM in [10] and 219 nM in test [11]. Besides, the Selectivity ratio in test [12] is 18; in test [9], 18.6. In addition, the Emax in test [13] worked out at 71%; in test [14] it was 84%. Also, the figures for the Ki in test [15] and in test [16] were 0.603 nM and 11.2 nM, respectively.

As for `COc1cc(CCNCc2cccc3ncoc23)c(OC)cc1Br`, the Ki was 11 nM in test [1] and 32.4 nM in test [2]. Besides, the Selectivity ratio in test [3] amounted to 2.9.

Consider `COc1cc(CCNCc2ccc[nH]c2=O)c(OC)cc1Br`, for which the values for the Ki in test [1] and in test [2] were 123 nM and 120 nM, respectively. Further, in test [3], the Selectivity ratio was determined as 1.

For `COc1cc(CCNCc2cccc(O)c2)c(OC)cc1Br`, the Ki in test [1] was 1.35 nM; in test [2] it was 20.9 nM. In addition, the Selectivity ratio in [3] is 16.

Take `COc1cc(CCNCc2cccc3cc[nH]c23)c(OC)cc1Br`: the inhibition constant (Ki) in [1] was 12.9 nM; in [2], 66.1 nM. In test [3], the Selectivity ratio was found to be 5.1.

In test [4], `COc1cc(CC(C)N)c(OC)cc1I` (configuration not stated) had an EC50 of 45.7 nM. In addition, the Emax in test [6] was determined as 87%; in [7], 119%.

Take `COc1cc(CCNCc2cccc(OC)c2O)c(OC)cc1Br`: the Ki in test [1] is 0.2 nM; in [2], 6.31 nM. Moreover, the results for the Selectivity ratio in [3] and in test [5] were 32 and 457, respectively. For the same compound, the results for the EC50 in [4] and in test [8] were 15500 nM and 33.9 nM, respectively. Besides, the Emax was 21% in [6] and 52% in test [7].
